Measurements taken from PubChem BioAssay (NCI).
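Step 1: Grow cells in 96-well plates. Step 2: Expose to compound for 48 hours at 5 concentrations. Step 3: Interpolate endpoints linearly; if unreached, use highest concentration. At the GI50, growth is halved. TGI marks complete inhibition of growth.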

Columns and labels:
Test in all cases: DTP human tumour cell line panel, 48 h
[1] = tested on: SNB-19 CNS
[2] = tested on: SF-295 CNS
[3] = tested on: CAKI-1 renal
[4] = tested on: BT-549 breast
[5] = tested on: OVCAR-4 ovarian
[6] = tested on: HL-60(TB) leukemia
[7] = tested on: KM12 colon
[8] = tested on: A549 NSCLC
[9] = tested on: MCF7 breast
[10] = tested on: MALME-3M melanoma

SMILES	TGI [1]	TGI [2]	TGI [3]	TGI [4]	TGI [5]	TGI [6]	TGI [7]	TGI [8]	TGI [9]	TGI [10]	GI50 [2]	GI50 [3]	GI50 [4]	GI50 [5]	GI50 [8]	GI50 [9]	GI50 [10]
Cc1ccccc1-c1nc2c(N)nc(N)nc2nc1N	> 100 µM	> 100 µM	> 100 µM	> 100 µM	> 100 µM	> 100 µM	> 100 µM	> 100 µM	> 100 µM								
C[C@@H]1CC[C@@]2(C)C(C(=O)O)=CCCC2[C@@]1(C)CC(=O)c1ccoc1 (stereo partly specified)	> 25 µM	> 25 µM	> 25 µM	> 25 µM	> 25 µM	> 25 µM	> 25 µM	> 25 µM	> 25 µM								
CCc1c(O)cc(=O)oc1-c1ccc(OC)c(OC)c1	> 100 µM	> 100 µM	> 100 µM	> 100 µM	> 100 µM		> 100 µM	> 100 µM	> 100 µM								
O=C(/C=C/c1ccc(Cl)cc1)Oc1ccc(C=C2CCC/C(=C\c3ccc(OC(=O)/C=C/c4ccc(Cl)cc4)cc3)C2=O)cc1	> 100 µM	> 100 µM	> 100 µM	> 100 µM	> 100 µM		> 100 µM	> 100 µM	> 100 µM	> 100 µM							
O=C(c1ccco1)N(C(=O)N1CCCCC1)c1ccccc1	> 100 µM		> 100 µM	> 100 µM		> 100 µM	> 100 µM		> 100 µM	> 100 µM							
COCOc1ccc(C(=O)Oc2cccc3c2OC(C)(C)O3)c(OCOC)c1		> 100 µM	> 100 µM			19 µM	91.1 µM		> 100 µM								
O=C(/C=C/c1ccc(O)c(O)c1)OCCc1ccc2ccccc2c1	25.9 µM	23.7 µM		15.7 µM			12.9 µM	24.9 µM	8.91 µM	23.1 µM							
Cc1nc(N)c(N2CCN(C#N)CC2)c(=O)[nH]1	> 100 µM	> 100 µM		> 100 µM			> 100 µM	> 100 µM	> 100 µM	> 100 µM							
CCCCI(O)OS(=O)(=O)c1ccc(C)cc1	> 100 µM	> 100 µM	> 100 µM	> 100 µM	> 100 µM		> 100 µM	> 100 µM	> 100 µM								
c1c[nH]c(-c2cccc3nsnc23)c1	> 100 µM	> 100 µM	> 100 µM	> 100 µM	> 100 µM		> 100 µM	> 100 µM	> 100 µM	> 100 µM							
O=C(CCc1cc(O)cc(O)c1)NCCc1cc(OCc2ccccc2)cc(OCc2ccccc2)c1	7.17 µM	25.8 µM	36.8 µM	35.8 µM		12.2 µM	28.1 µM	23.6 µM	23.6 µM								
Nc1ncnc2c1nnn2C1C=CC(CP(=O)(O)O)C1 (stereo unspecified)	> 100 µM	> 100 µM			> 100 µM	> 100 µM	> 100 µM	> 100 µM	> 100 µM	> 100 µM							
COc1ccc2c(c1)c1c(n2CCN2CCCCC2)-c2cccc(OC)c2CC1	29.7 µM	> 100 µM	37.7 µM	41.6 µM	> 100 µM		28.8 µM	> 100 µM	35.4 µM								
C[C@]12CCC3[C@@H](CCC45OC4C(=O)CC[C@]35C)C1Cc1cnn(-c3ccc(F)cc3)c1N2 (stereo partly specified)	92.6 µM	> 100 µM				41.9 µM	55.1 µM	> 100 µM		> 100 µM							
O=[N+]([O-])c1cccc(C2=NN(c3ccccc3)C3c4cc(Br)ccc4OCC23)c1 (stereo unspecified)	> 100 µM	> 100 µM				> 100 µM	> 100 µM	> 100 µM		> 100 µM							
N#CNC(N)=NCc1ccccc1		> 100 µM			> 100 µM	> 100 µM	> 100 µM	> 100 µM		> 100 µM							
CC1=NN(C(=O)Cc2ccccc2)C(=O)/C1=C\c1ccc(O)cc1	> 100 µM	> 100 µM	> 100 µM		> 100 µM	> 100 µM	> 100 µM	> 100 µM		> 100 µM							
CC(=O)O[C@@H](c1nccn1Cc1ccccc1)[C@H]1OC(C)(C)O[C@@H]1[C@H]1COC(C)(C)O1		> 100 µM	> 100 µM	> 100 µM	> 100 µM	> 100 µM	> 100 µM	> 100 µM	> 100 µM	> 100 µM							
CC1CC(N2CCOCC2)=Nc2ccccc2N1C (stereo unspecified)	> 100 µM	> 100 µM	> 100 µM	> 100 µM	> 100 µM	> 100 µM	> 100 µM	> 100 µM		> 100 µM							
CCOC(=O)c1c(N2CCCC2)[nH]c(=O)c(C(c2ccc(OC)cc2)c2c(O)c(C(=O)OCC)c(N3CCCC3)[nH]c2=O)c1O	> 100 µM	> 100 µM	71.1 µM	> 100 µM	> 100 µM		> 100 µM	> 100 µM	> 100 µM	> 100 µM							
CCCCCCCC(=O)OCC(COC(=O)C(C)(C)C)OC(=O)Cc1ccccc1 (stereo unspecified)	> 100 µM	> 100 µM	> 100 µM		> 100 µM	> 100 µM		> 100 µM		> 100 µM							
COc1cc(C)c(CC/C(C)=C/Cc2cc(O)ccc2O)c(C)c1C	> 25 µM	> 25 µM	> 25 µM		> 25 µM	> 25 µM	> 25 µM	> 25 µM		> 25 µM							
COc1ccc(N=Nc2c(-c3c(OC)cc4occc4c3OC)[nH]c(=O)c(C#N)c2C)cc1	> 100 µM	> 100 µM	> 100 µM		> 100 µM	> 100 µM	> 100 µM	> 100 µM	> 100 µM	> 100 µM							
CN(C)C(=O)C(F)(F)C(c1ccc(F)cc1)C1C(=O)N(C)C(=O)N(C)C1=O (stereo unspecified)	> 100 µM	> 100 µM	> 100 µM	> 100 µM	> 100 µM		> 100 µM	> 100 µM	> 100 µM								
CCCCCCCCCCCCCCCCCCOc1ccccc1CC(=O)NCC[N+]1(C)CCOCC1		49.2 µM	38.3 µM	74 µM	23.3 µM			26.3 µM	9.34 µM	> 100 µM	4.99 µM	18.4 µM	3.57 µM	6.42 µM	4.39 µM	2.71 µM	4.48 µM
